Biological target: T1, HsRAD51 (Homo sapiens, UniProt Q06609)
T1 sequence (Q06609 2-339): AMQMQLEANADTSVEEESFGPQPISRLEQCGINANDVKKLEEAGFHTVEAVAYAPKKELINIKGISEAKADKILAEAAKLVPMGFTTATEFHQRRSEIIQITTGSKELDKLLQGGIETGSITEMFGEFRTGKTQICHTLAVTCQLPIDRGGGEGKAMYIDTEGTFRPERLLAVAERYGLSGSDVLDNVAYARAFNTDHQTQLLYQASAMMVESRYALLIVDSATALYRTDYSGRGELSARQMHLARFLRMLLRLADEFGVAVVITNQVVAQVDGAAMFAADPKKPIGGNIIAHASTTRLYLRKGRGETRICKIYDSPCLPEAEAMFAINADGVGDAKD
Experiment: LC-MS/MS of the covalent adduct at C319
Format: binding

- IC50: 5 to 30 µM
Compound: O=C1C(Cl)=C(N2CCOCC2)C(=O)N1c1ccc(Cl)c(Cl)c1 [RI-1, 3-chloro-1-(3,4-dichlorophenyl)-4-(4-morpholinyl)-1H-pyrrole-2,5-dione]

Source: PMC3424541 (2012)
